Among the targets are Cytochrome P450 2D6 (Homo sapiens, UniProt P10635); Cytochrome P450 3A4 (Homo sapiens, UniProt P08684); Cytochrome P450 2C9 (Homo sapiens, UniProt P11712).
The target in assay [1] is T1, Rac GTPase-activating protein 1 (Homo sapiens, UniProt Q9H0H5).
T1 sequence (Q9H0H5 whole entry): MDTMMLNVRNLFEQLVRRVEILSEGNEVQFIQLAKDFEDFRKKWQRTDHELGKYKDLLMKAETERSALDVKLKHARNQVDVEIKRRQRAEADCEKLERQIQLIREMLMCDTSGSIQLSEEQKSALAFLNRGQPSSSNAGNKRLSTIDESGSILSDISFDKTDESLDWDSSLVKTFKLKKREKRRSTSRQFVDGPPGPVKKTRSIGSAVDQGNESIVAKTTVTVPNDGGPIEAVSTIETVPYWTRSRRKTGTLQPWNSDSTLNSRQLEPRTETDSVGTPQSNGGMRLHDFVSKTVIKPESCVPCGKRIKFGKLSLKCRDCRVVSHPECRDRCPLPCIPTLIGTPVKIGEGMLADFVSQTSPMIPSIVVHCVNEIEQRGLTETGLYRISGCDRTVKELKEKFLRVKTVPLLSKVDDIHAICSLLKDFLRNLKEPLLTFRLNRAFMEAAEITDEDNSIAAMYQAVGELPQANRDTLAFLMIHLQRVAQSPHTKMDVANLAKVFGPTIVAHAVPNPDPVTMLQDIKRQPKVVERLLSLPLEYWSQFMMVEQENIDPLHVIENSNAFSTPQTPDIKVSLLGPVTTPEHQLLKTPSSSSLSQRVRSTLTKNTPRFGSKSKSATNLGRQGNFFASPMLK
Kind of assay: blockers of MgcRacGAP-driven Rac1 GTP hydrolysis – biochemical, ADP Hunter fluorescence, primary and confirmatory, confirmation (AID 624330). The assay is classed as functional.

A further assay has as its target T2, Cytochrome P450 1A2 (Homo sapiens, UniProt P05177).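 Note: PubChem cytochrome P450 panel assay, CYP1A2 panel member.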
T2 sequence (P05177 whole entry): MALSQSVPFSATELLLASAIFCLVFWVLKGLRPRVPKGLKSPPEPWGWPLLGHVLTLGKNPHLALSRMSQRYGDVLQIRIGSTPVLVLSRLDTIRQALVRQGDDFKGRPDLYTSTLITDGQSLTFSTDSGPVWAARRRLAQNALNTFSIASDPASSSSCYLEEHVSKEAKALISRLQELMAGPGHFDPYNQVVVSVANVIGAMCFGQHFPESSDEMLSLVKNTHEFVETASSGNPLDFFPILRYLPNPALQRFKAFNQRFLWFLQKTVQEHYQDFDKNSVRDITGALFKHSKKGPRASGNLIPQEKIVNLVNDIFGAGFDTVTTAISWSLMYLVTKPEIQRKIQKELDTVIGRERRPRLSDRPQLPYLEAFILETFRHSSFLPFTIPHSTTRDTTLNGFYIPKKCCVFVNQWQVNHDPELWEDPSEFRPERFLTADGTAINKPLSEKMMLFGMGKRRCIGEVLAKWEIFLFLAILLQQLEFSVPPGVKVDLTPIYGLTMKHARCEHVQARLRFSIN

Assay [2] addresses T3, Corticotropin-releasing factor receptor 2/Corticotropin-releasing factor-binding protein (Homo sapiens, UniProt P24387+Q13324).
T3 sequence (Q13324 whole entry): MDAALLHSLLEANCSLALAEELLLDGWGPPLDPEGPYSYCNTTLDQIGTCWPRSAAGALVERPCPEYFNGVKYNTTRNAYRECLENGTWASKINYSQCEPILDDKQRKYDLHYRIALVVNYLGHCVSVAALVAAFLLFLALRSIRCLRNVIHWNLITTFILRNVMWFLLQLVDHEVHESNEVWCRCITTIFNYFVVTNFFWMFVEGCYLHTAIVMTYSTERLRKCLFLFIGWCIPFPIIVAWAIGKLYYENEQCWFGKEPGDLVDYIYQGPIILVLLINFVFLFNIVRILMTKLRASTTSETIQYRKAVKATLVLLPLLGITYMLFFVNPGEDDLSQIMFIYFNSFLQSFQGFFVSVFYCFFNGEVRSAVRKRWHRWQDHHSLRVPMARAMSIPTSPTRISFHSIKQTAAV
T3 sequence (P24387 whole entry): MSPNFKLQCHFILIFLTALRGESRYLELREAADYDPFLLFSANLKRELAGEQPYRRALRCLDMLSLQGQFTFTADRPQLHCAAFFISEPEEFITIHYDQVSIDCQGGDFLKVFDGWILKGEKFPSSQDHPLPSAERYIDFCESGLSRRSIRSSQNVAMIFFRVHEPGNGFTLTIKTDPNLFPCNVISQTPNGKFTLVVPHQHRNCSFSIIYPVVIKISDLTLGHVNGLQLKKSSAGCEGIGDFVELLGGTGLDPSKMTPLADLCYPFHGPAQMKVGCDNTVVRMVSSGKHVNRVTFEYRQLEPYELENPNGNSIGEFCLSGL
Nature of the assay: Dose Response confirmation of uHTS hits for small molecule antagonists of the CRF-binding protein and CRF-R2 receptor complex. The note with it: read-out: IC50_Mean. The assay is classed as functional.

Assay [3] deals with T3, Corticotropin-releasing factor receptor 2/Corticotropin-releasing factor-binding protein. Nature of the assay: activators of CRF receptor 2 with binding protein – uHTS hits, confirmation (AID 602473). The assay is classed as functional. Particulars: read-out: EC50_Mean.
A short description of assay [4]: NIH3T3 cell viability loss – ATP luminescence, mouse fibroblasts, counter-screen, dose response (AID 2010).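 Note: cells exposed to compound for about 90 hours before reading.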 The assay is classed as functional, cell-based. A general note: A counterscreen serves to expose hits that act by an unwanted route or on another target.
Assay [5] in a line: Trypanosoma cruzi growth suppression in host cells – NIH3T3 host cells, beta-gal luminescence, confirmation (AID 2044).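 Note: intracellular parasites grown in NIH/3T3 mouse fibroblasts as host cells; luminescent beta-galactosidase reporter signal from transgenic T. cruzi replicating inside host cells; inhibitors lower the luminescence signal.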 The assay is classed as functional, cell-based.
The target in the next assay is Cytochrome P450 2C19 (Homo sapiens, UniProt P33261). Kind of assay: Cytochrome panel assay with activity outcomes. Panel member name: p450-cyp2c19 Compounds with AC50 equal or less than 10 uM are considered active. The assay is classed as functional. The note with it: read-out: AC50.
Chain of Cytochrome P450 2C19 (P33261 whole entry): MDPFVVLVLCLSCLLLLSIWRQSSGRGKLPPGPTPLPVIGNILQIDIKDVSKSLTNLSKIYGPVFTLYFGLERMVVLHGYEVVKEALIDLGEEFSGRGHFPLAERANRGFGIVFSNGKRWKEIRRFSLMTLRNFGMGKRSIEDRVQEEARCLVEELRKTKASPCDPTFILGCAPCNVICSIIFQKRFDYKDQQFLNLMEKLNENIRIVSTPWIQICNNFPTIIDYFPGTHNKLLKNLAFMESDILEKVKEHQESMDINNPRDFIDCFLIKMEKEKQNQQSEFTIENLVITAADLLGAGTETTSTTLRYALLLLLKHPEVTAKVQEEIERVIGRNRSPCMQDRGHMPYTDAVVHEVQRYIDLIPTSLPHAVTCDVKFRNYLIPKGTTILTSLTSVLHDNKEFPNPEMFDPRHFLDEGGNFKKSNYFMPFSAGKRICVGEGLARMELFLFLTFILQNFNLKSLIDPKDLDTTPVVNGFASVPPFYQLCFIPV
A short description of another assay: cells. The assay is classed as functional.
A short description of assay [6]: P. falciparum Dd2 growth inhibitors, dose response, SYBR Green, cherry-picked samples (AID 1159567). The assay is classed as functional, cell-based.
Assay [7] is described as follows: viability of PTEN-deleted HCT116 cells – cell-based, HCT116 PTEN knockout, dose response (AID 1047).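 Note: HCT116 colon tumor cells with PTEN knocked out; cells exposed to compound for 60 hours before readout; potency for loss of cell viability measured by luminescence.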 The assay is classed as functional.
Assay [8] in a line: viability of HCT116 lacking mutant beta-catenin – cell-based, human colon tumor, dose response (AID 1045).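 Note: HCT116 colon tumor cells with beta catenin knocked out; cells exposed to compound for 60 hours.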 The assay is classed as functional.

For 38 compounds, IC50, AC50 and EC50 results are on record in ChEMBL document CHEMBL1201862, “PubChem BioAssay data set” (2004).

Activity calls are given as the source filed them.

The term AC50 denotes the concentration giving half of the maximal activity seen.

Chain of Cytochrome P450 2C9 (P11712 whole entry): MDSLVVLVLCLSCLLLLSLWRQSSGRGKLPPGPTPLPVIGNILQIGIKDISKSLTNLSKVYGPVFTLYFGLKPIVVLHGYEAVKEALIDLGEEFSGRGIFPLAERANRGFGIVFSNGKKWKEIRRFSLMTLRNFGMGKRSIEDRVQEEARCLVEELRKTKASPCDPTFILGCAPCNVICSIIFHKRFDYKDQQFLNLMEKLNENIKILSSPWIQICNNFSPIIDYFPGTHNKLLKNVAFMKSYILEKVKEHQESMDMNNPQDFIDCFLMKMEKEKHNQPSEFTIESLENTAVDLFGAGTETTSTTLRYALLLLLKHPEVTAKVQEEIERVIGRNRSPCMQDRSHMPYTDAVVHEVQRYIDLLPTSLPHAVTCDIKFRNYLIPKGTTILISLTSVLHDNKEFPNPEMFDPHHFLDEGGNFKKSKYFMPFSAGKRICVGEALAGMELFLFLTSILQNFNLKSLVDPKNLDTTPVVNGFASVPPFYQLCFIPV
Chain of Cytochrome P450 3A4 (P08684 whole entry): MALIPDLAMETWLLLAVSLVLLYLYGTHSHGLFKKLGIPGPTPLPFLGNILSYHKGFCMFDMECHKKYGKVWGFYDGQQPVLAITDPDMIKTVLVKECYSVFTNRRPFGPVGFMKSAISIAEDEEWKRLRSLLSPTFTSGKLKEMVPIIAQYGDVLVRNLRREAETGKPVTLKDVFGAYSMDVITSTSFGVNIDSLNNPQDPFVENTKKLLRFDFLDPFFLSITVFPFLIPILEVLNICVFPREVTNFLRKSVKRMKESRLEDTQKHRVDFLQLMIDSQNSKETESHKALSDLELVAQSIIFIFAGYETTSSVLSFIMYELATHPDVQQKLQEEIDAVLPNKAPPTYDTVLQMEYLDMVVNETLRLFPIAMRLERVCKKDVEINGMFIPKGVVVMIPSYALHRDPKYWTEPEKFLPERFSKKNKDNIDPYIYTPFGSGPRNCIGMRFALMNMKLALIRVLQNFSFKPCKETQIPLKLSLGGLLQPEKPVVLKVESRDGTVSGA
Chain of Cytochrome P450 2D6 (P10635 whole entry): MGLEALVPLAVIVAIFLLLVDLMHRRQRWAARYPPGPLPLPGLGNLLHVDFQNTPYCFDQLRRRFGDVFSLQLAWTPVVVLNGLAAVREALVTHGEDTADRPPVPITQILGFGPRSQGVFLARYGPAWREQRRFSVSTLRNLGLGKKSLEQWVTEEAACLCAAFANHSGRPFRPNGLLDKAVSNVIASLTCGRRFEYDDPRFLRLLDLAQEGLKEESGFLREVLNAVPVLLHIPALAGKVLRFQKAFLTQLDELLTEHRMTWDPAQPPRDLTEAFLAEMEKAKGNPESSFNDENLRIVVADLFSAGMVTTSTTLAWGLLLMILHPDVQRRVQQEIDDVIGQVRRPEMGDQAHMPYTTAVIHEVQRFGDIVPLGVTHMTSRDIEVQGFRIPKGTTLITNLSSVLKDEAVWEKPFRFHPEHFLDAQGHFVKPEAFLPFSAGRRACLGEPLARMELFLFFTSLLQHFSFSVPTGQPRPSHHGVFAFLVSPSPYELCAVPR

As to `COc1ccc(N2C(=O)/C(=C/N(C)C)NC2=S)cc1`, the IC50 in assay [1] was 75.4 µM (active). `CCSc1nnc([C@@H](N)Cc2c[nH]c3ccccc23)o1`: the AC50 at Cytochrome P450 2D6 was 12.6 µM (inconclusive); on Cytochrome P450 1A2, 17.8 µM (inconclusive).

Consider `CCOC(=O)c1cc(NC(=O)Nc2cc(C)ccn2)c(C)nc1C`, for which, in [2], the IC50 is > 47.1 µM (inactive). Moreover, in assay [3], the EC50 was > 53 µM (inactive). For the compound `Cc1ccc(SCCN2CCN(Cc3ccccc3)CC2)cc1`, in assay [1], the IC50 was 84.8 µM (active). Moreover, the EC50 in [4] was > 60 µM (not active); in assay [5], 0.549 µM (active).

For `OC(c1ccccc1)(c1ccccc1)C1CCCN1` (stereo not drawn), the AC50 at Cytochrome P450 2D6 is 25.1 µM (inconclusive); at Cytochrome P450 2C19, 1.41 µM (inconclusive).

For the compound `O=C(Nc1ccc(Cl)c(Cl)c1)N1CCC(N2CCCCC2)CC1`, the values for the AC50 on Cytochrome P450 3A4, on Cytochrome P450 2D6 and at Cytochrome P450 2C19 were 22.4 µM (inconclusive), 10 µM (inconclusive) and 39.8 µM (inconclusive), respectively.

In the case of `Nc1nc(O)cc(Nc2ccccc2Cl)n1`, the IC50 in assay [2] was > 47.1 µM (inactive). Besides, the EC50 in assay [3] is > 53 µM (inactive). As to `COc1ccc(/C=N/NC(=O)c2ccncc2)cc1CN1CCOCC1`, the IC50 in the assay “cells” was 0.64 µM (active). As for `O=C(NCC1CCCO1)C1c2ccccc2C(=O)N1Cc1ccc2c(c1)OCO2` (stereo not drawn), the AC50 is 15.8 µM (inconclusive) at Cytochrome P450 2D6, 11.2 µM (inconclusive) on Cytochrome P450 2C9 and 15.8 µM (inconclusive) on Cytochrome P450 1A2. Regarding `CC(C)(C)NC[C@H](O)c1ccccc1Cl`, on Cytochrome P450 2D6, the AC50 is 31.6 µM (inconclusive). As to `COc1cc(/C=N/NC(=O)c2ccccn2)ccc1OC(=O)c1cccs1`, the IC50 in the assay “cells” was 10.5 µM (active). Take `COc1ccc2c3c([nH]c2c1)[C@@H](CO)N(C(=O)c1cccc(F)c1)CC31CCN(C(=O)c2ccccc2)CC1`: the AC50 in assay [6] was 5.71 µM (active). As for `SC1=NCN(CCc2ccccc2)CN1Cc1ccccc1`, in assay [2], the IC50 is > 47.1 µM (inactive). Besides, the EC50 in assay [3] was > 53 µM (inactive). For the compound `C[C@@H]1CN([C@H](C)CO)C(=O)c2cc(C#Cc3ccccc3F)cnc2O[C@H]1CN(C)C(=O)c1ccc2c(c1)OCO2`, the AC50 in assay [6] was 3.31 µM (active). For the compound `CN1CCC(O)(c2ccc(Cl)cc2)C(C(=O)c2ccc(Cl)cc2)C1` (stereo not drawn), the IC50 in “cells” is 38.5 µM (active). Same read-out and setting: the result for `O=C(OCn1nnc2ccccc2c1=O)C1CCCCC1` reads 6.75 µM (active).

For `C=CCn1c(SCC(=O)c2c(N)n(C)c(=O)n(C)c2=O)nc2sc(CC)cc2c1=O`, the EC50 in assay [7] was 26.2 µM (active); in [8] it was 23.3 µM (active). For `COc1ccc(CCNCc2cccc(C(F)(F)F)c2)cc1OC`, the IC50 in assay [1] is 186 µM (active). As to `O=C(Cn1cc(C(F)(F)F)ccc1=O)N1CCN(S(=O)(=O)c2ccccc2)CC1`, the results for the AC50 on Cytochrome P450 2D6, at Cytochrome P450 2C19 and on Cytochrome P450 1A2 were 11.2 µM (inconclusive), 31.6 µM (inconclusive) and 39.8 µM (inconclusive), respectively. With `OCCOCCN1CCN(C(S)=Nc2ccccc2)CC1`, the IC50 in assay [2] was > 47.1 µM (inactive). In addition, in [3], the EC50 was > 53 µM (inactive). For the compound `CC(=O)C1=C(O)C(=O)N(Cc2ccccc2)C1c1ccc(F)cc1` (stereo not drawn), the IC50 in [2] was > 47.1 µM (inactive). Also, the EC50 in [3] is > 53 µM (inactive).

With `COc1ccc(N2CCN(S(=O)(=O)c3c(C)nc4scc(C)n4c3=O)CC2)cc1`, the IC50 in assay [1] is 209 µM (active).

`COc1ccccc1NC(=O)N1CCCCN2[C@@H](CO)[C@H](c3ccc(C#CC4CC4)cc3)[C@@H]2C1`: in assay [6], the AC50 is 5.48 µM (active). Consider `COc1ccc(O[C@H]2C=C[C@@H](c3ccccc3)O[C@H]2CO/N=C2/[C@H]3O[C@@H]3[C@@H](O)[C@H]3[C@H]2CCn2c(=O)n(-c4ccccc4)c(=O)n23)cc1`, for which the AC50 at Cytochrome P450 2D6 is 3.98 µM (inconclusive); on Cytochrome P450 2C9, 2 µM (inconclusive).

Consider `O=C(NCCc1csc(-c2ccccc2)n1)c1c(F)cccc1Cl`, for which, in assay [2], the IC50 was > 47.1 µM (inactive). In addition, the EC50 in assay [3] was > 53 µM (inactive). Regarding `O=C1/C(=C\c2cccnc2)CCc2ccccc21`, the results for the EC50 in [7] and in assay [8] were 15.4 µM (active) and 14.5 µM (active), respectively. As to `CCc1sc(N2[C@@H](C#N)[C@@H](c3ccccc3-c3ccccc3)[C@@H]2CO)nc1C`, the AC50 in assay [6] is 8.33 µM (active). As for `COc1cccc(Oc2ccc(OC)cc2C(=O)O)c1`, the IC50 in assay [2] is > 47.1 µM (inactive). Also, the EC50 in [3] is > 53 µM (inactive). For `CCOc1c2ccc(C(=O)N[C@H](C)C3CCCCC3)cc2nn1CC`, the AC50 on Cytochrome P450 3A4 is 25.1 µM (inconclusive); on Cytochrome P450 2D6, 10 µM (inconclusive); on Cytochrome P450 2C9 it was 14.1 µM (inconclusive); at Cytochrome P450 2C19 it was 28.2 µM (inconclusive); at Cytochrome P450 1A2, 12.6 µM (inconclusive).

Take `Cc1cc(C)n2nc(CC(=O)NNC(=O)c3ccccc3Cl)nc2n1`: in assay [2], the IC50 is > 47.1 µM (inactive). For the same compound, the EC50 in assay [3] is > 53 µM (inactive).

Take `O=C(N/N=C/c1cccc(OCc2ccccc2)c1)c1cccs1`: the values for the AC50 at Cytochrome P450 3A4 and on Cytochrome P450 2D6 were 20 µM (inconclusive) and 25.1 µM (inconclusive), respectively. Turning to `CC(C)(C)[S@@+]([O-])N1Cc2cc(C(=O)NCCN3CCCC3)nc(-c3cccc(-c4ccc(C#N)cc4)c3)c2[C@H]1CCO`, the AC50 in assay [6] was 4.66 µM (active).

On to `ClCCNc1nc2cc(Cl)ccc2[nH]1`, for which the half-maximal activity concentration (AC50) was 6.31 µM (inconclusive) on Cytochrome P450 2D6, 4.47 µM (inconclusive) at Cytochrome P450 2C9 and 15.8 µM (inconclusive) on Cytochrome P450 2C19. With `COCC(C)n1c(C)cc(C(=O)CSc2nnc(Nc3ccccc3F)s2)c1C` (stereo not drawn), the values for the AC50 at Cytochrome P450 2D6 and at Cytochrome P450 1A2 were 25.1 µM (inconclusive) and 28.2 µM (inconclusive), respectively. `O=C(Nc1ccccn1)c1ccc(C(=O)c2ccccc2)cc1`: the IC50 in “cells” is 32.6 µM (active). For the compound `CCOc1ccccc1Oc1c[nH]nc1-c1ccc(O)cc1O`, the IC50 in assay [1] is 35.5 µM (active). On to `CSCCO/C(O)=C1/Sc2cc(C)ccc2N=C1C`, for which the IC50 in assay [1] is 52.9 µM (active). For the compound `COc1ccc2oc(C(=O)c3ccccc3)c(NC(=O)CN3CCN(C)CC3)c2c1`, the EC50 is 15.9 µM (active) in assay [7] and 14.1 µM (active) in assay [8].
